Legend:
[1] = DPPH free radical scavenging assay
Description: The protocol of Brand-Williams et al. was used for the DPPH assay with some modifications. DPPH (4 mg) was dissolved in methanol (100 mL) to obtain a mixture of […] 1,1-diphenyl,2-picrylhydrazyl (DPPH). The stock solution of the various synthesized compounds was prepared in methanol with 1 mg/mL concentration. This stock solution was used to prepare different concentrations of test samples ranging within 1000–62.5 μg/mL. The 0.1 mL of each concentration (1000–62.5 μg/mL) was combined with the DPPH (3 mL) solution in methanol. The solution was kept at 23 °C for 15 min incubation, followed by the absorbance measurement deliberated at 517 nm. Gallic acid was used as a standard drug in this assay. The percentage DPPH radical scavenging potential was measured via the formula [44]: % radical scavenging potential=CAbs.−SAbs./CAbs.×100 where CAbs. is the absorbance of the control, and SAbs is the absorbance of test samples/standard.

[2] = ABTS free radical scavenging assay
Description: The total antioxidant activity of test compound (HBH) was estimated using the 2, 2-azinobis [3-ethylbenzthiazoline]-6-sulfonic acid (ABTS). The 100 mL of ABTS solution (7 mM) was added to 100 mL of potassium persulfate ([…], 2.45 mM) solution, mixed, and kept in the dark for 12 h to generate free radicals. […]. Gallic acid at 2 mg/2 mL of water was used as a standard drug. Likewise, for the test sample, different concentrations (1000–62.5 μg/mL) of the […] were made for absorbance measurements at the same wavelength. The 300 μL of each test solution was added to 3 mL of ABTS solution to measure the absorbance at 745 nm through a UV-visible spectrophotometer. A similar volume of each standard solution was taken to determine the absorbance at the same wavelength. The ABTS percent scavenging potential was calculated via the above formula [45].

COX-2 = biological target: T1, COX-2 (Homo sapiens, UniProt P35354); experiment: Cyclooxygenase (COX-2) inhibition assay; format: biochemical; conditions: for SI (calculated selectivity index): COX-2 selectivity over COX-1; for IC50: read-out: IC50 ± SEM COX-2
T1 construct: purchased Sigma Aldrich Germany C0858
T1 sequence (P35354 18-604): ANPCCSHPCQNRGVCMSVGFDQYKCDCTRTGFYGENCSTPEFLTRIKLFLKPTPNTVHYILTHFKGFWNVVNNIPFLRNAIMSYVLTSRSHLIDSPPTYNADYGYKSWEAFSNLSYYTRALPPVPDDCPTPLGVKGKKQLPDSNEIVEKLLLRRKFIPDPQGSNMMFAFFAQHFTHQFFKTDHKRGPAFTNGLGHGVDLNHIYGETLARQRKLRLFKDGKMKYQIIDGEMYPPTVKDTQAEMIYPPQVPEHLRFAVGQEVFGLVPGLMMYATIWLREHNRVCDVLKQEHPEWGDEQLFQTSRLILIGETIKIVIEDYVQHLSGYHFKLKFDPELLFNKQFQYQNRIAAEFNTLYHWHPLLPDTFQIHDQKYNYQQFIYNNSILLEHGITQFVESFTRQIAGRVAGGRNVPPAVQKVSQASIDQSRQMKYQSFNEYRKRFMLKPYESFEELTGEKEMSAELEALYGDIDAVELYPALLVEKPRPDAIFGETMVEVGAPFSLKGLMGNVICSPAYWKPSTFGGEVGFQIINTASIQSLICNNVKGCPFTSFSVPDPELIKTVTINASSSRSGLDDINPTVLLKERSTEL
Description: (§1) The COX-1 and 2 enzymes’ inhibitions assays on the synthesized compounds were carried out as per the standard reported method. Initially, the respective enzyme solution was prepared in a concentration of 300 units/mL. The enzyme activation was started with keeping 10 µL of enzyme solution in the cold for up to 10 min. To this enzyme solution was added the substrate solution in HCl (0.1 M Trish buffer with pH of 8.0). The co-factor 50 µL solution contained TMPD (N,N,N,N-tetramethyl-p-phenylenediamine dihydrochloride, 0.24 mM), hematin (1 mM) and glutathione (0.9 mM). […] The reaction was initiated by adding arachidonic acid (20 µL, 30 mM). The overall solution was incubated for five minutes. Afterwards, the absorbance was recorded on a UV-visible instrument at 570 nm. From the absorbance value of every sample, the percentage inhibition was calculated as per the standard method.
Cyclooxygenase (COX-2) was acquired from human recombinant (Catalog No:C0858) and […]
co-factor substances in this study like N, N_, N_-tetramethyl-p-phenylenediamine […]
91- 7, GmbH USA). these all were purchased from Sigma Aldrich Germany. Buffer solution containing (KH2PO4 & K2HPO4), was of best quality with high purity. […]
was purchased from Pfizer Pharmaceutical and Libra (Pvt.) limited . Tramadol, Diclofenac was purchased from Alliance Pharmaceutical Pakistan.

COX-1 = COX-1 (Homo sapiens, UniProt P23219); experiment: Cyclooxygenase (COX-1) inhibition assay; format: biochemical; conditions: read-out: IC50 ± SEM COX-1
Description: as §1

5-LOX = biological target: T2, 5-LOX (Homo sapiens, UniProt P09917); experiment: 5-Lipoxygenase (5-LOX) inhibition assay; format: biochemical; conditions: read-out: 5LOX IC50 ± SEM
T2 construct: purchased Sigma Aldrich Germany 437996
T2 sequence (P09917 1-674): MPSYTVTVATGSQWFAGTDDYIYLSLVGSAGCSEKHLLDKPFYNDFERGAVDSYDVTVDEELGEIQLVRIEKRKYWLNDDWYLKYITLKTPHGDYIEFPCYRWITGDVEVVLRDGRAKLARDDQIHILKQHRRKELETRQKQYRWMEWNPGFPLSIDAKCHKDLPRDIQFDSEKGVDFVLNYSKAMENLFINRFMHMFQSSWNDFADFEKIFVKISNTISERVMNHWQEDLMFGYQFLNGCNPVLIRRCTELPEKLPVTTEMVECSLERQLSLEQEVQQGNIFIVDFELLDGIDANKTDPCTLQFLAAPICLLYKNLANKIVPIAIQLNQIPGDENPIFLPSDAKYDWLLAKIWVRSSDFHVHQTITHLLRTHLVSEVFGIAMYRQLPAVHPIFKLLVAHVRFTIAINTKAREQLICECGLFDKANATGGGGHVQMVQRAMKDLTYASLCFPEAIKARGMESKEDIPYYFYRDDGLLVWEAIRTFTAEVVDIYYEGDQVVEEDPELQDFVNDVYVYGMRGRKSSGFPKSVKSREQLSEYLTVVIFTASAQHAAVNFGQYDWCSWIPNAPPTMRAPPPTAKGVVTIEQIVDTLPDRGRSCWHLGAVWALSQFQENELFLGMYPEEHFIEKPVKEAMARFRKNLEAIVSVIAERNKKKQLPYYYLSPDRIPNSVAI
Description: The lipoxygenase inhibition assay on the synthesized compounds was carried out as per the standard reported method. […] The 5-LOX enzyme solution was also prepared at a strength of 10,000 units/mL. The linoleic acid (80 mM) was employed as a substrate in lipoxygenase assay. The buffer (phosphate) was also prepared for the assay having 50 mM strength and a pH of 6.3. The samples of synthesized compounds (250 µL), phosphate buffer (250 µL) and mixture of the enzyme were mixed and incubated for five minutes. Afterwards, the solution of the substrate (0.6 mM, 1000 µL) was mixed with lipoxygenase enzyme mixture with shaking. […] The percent inhibition was calculated as per the standard method. […]
91- 7, GmbH USA). these all were purchased from Sigma Aldrich Germany. Buffer solution
containing (KH2PO4 & K2HPO4), was of best quality with high purity. […]

albino mice = experiment: Acute toxicity; format: in vivo; conditions: highest dose 2000 mg/kg
From the text: Before testing our selected compounds for in vivo experiments, we performed the toxicity test as per the protocol. Four groups of animals were labelled, with eight animals in each group. The control group was given normal saline, while other groups were given different concentrations of the selected compounds.

COX-1, sequence (P23219 24-599): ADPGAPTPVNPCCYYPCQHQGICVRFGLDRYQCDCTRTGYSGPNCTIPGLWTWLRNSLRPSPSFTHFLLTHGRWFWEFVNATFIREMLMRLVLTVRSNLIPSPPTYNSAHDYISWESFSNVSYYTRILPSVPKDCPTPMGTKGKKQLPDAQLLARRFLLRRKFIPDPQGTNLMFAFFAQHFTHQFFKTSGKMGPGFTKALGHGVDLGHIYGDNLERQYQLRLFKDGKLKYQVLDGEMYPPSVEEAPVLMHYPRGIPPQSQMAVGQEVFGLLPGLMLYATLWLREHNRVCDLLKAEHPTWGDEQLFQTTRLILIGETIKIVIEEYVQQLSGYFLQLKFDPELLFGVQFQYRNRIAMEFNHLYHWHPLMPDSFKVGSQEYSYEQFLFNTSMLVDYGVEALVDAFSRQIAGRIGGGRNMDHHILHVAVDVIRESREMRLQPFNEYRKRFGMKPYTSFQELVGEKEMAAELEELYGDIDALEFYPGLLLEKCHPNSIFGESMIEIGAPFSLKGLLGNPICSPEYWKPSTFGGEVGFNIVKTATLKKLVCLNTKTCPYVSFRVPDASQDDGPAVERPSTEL

CC(C)c1ccc(C[C@](C)(C=O)[C@@H](C[N+](=O)[O-])c2ccccc2)cc1 (mixture of isomers) [FM1, (2S,3S)-2-(4-isopropylbenzyl)-2-methyl-4-nitro-3-phenylbutanal]
IC50 [1]: 54.4 µM | IC50 [2]: 62.9 µM | SI (calculated selectivity index) (COX-2): 12.2 | IC50 (COX-2): 1.21 ± 0.03 µM | IC50 (COX-1): 14.8 ± 1.19 µM | IC50 (5-LOX): 1.81 ± 0.11 µM | melting point: 149 to 151 °C

CC(C)c1ccc(C[C@](C)(C=O)[C@@H](C[N+](=O)[O-])c2ccc(Cl)cc2)cc1 (mixture of isomers) [FM2, (2S,3S)-3-(4-chlorophenyl)-2-(4-isopropylbenzyl)-2-methyl-4-nitrobutanal]
IC50 [1]: 55.4 µM | IC50 [2]: 42 µM | SI (calculated selectivity index) (COX-2): 15.1 | IC50 (COX-2): 2.51 ± 0.24 µM | IC50 (COX-1): 38 ± 1.65 µM | IC50 (5-LOX): 0.64 ± 0.01 µM | melting point: 173 to 175 °C

Cc1ccc([C@H](C[N+](=O)[O-])[C@@](C)(C=O)Cc2ccc(C(C)C)cc2)cc1 (mixture of isomers) [FM3, (2S,3S)-2-(4-isopropylbenzyl)-2-methyl-4-nitro-3-(p-tolyl)butanal]
IC50 [1]: 15.1 µM | IC50 [2]: 11.5 µM | SI (calculated selectivity index) (COX-2): 3.6 | IC50 (COX-2): 3.53 ± 0.18 µM | IC50 (COX-1): 12.8 ± 1.08 µM | IC50 (5-LOX): 9.69 ± 0.99 µM | melting point: 135 to 137 °C

COc1ccc([C@H](C[N+](=O)[O-])[C@@](C)(C=O)Cc2ccc(C(C)C)cc2)cc1 (mixture of isomers) [FM4, (2S,3S)-2-(4-isopropylbenzyl)-3-(4-methoxyphenyl)-2-methyl-4-nitrobutanal]
IC50 [1]: 21.1 µM | IC50 [2]: 25.8 µM | SI (calculated selectivity index) (COX-2): 42.8 | IC50 (COX-2): 0.74 ± 0.03 µM | IC50 (COX-1): 31.7 ± 1.37 µM | IC50 (5-LOX): 0.98 ± 0.12 µM | Acute toxicity observation (albino mice): very mild seizures and disturbances in breath (temporary)

COc1ccccc1[C@H](C[N+](=O)[O-])[C@@](C)(C=O)Cc1ccc(C(C)C)cc1 (mixture of isomers) [FM5, (2S,3S)-2-(4-isopropylbenzyl)-3-(2-methoxyphenyl)-2-methyl-4-nitrobutanal]
IC50 [1]: 184 µM | IC50 [2]: 191 µM | SI (calculated selectivity index) (COX-2): 7.2 | IC50 (COX-2): 8.15 ± 0.98 µM | IC50 (COX-1): 58.4 ± 2.08 µM | IC50 (5-LOX): 16.3 ± 1.02 µM | melting point: 129 to 131 °C

CC(C)c1ccc(C[C@](C)(C=O)[C@@H](C[N+](=O)[O-])c2ccco2)cc1 (mixture of isomers) [FM6, (2S,3S)-3-(furan-2-yl)-2-(4-isopropylbenzyl)-2-methyl-4-nitrobutanal]
IC50 [1]: 49.7 µM | IC50 [2]: 37.7 µM | SI (calculated selectivity index) (COX-2): 11.6 | IC50 (COX-2): 4.72 ± 0.08 µM | IC50 (COX-1): 54.8 ± 1.95 µM | IC50 (5-LOX): 6.17 ± 0.23 µM | melting point: 161 to 163 °C

CC(C)c1ccc(C[C@](C)(C(=O)O)[C@@H](C[N+](=O)[O-])c2ccccc2)cc1 [FM7, (2S,3S)-2-(4-isopropylbenzyl)-2-methyl-4-nitro-3-phenylbutanoic Acid]
IC50 [1]: 22.5 µM | IC50 [2]: 24.7 µM | SI (calculated selectivity index) (COX-2): 23.2 | IC50 (COX-2): 1.09 ± 0.01 µM | IC50 (COX-1): 25.3 ± 1.22 µM | IC50 (5-LOX): 0.73 ± 0.05 µM | melting point: 243 to 245 °C

CC(C)c1ccc(C[C@](C)(C(=O)O)[C@@H](C[N+](=O)[O-])c2ccc(Cl)cc2)cc1 [FM8]
melting point: 259 to 261 °C

Cc1ccc([C@H](C[N+](=O)[O-])[C@](C)(Cc2ccc(C(C)C)cc2)C(=O)O)cc1 [FM9]
melting point: 233 to 235 °C

COc1ccccc1[C@H](C[N+](=O)[O-])[C@](C)(Cc1ccc(C(C)C)cc1)C(=O)O [FM11]
melting point: 211 to 213 °C

O=C(O)c1cc(O)c(O)c(O)c1 [Gallic acid, reference compound]
IC50 [1]: 9.02 µM | IC50 [2]: 3.23 µM

Reference: article PMC9268591, “Anti-Inflammatory, Analgesic and Antioxidant Potential of New (2S,3S)-2-(4-isopropylbenzyl)-2-methyl-4-nitro-3-phenylbutanals and Their Corresponding Carboxylic Acids through In Vitro, In Silico and In Vivo Studies” (Molecules, 2022)
